Source: PubChem BioAssay AID1919005 (Molecular Pharmacology Branch, DTP, NCI, 2023)

Tested on: 855422-203-R-J1-PDC complex spheroid growth
Assay: Anticancer human tumor 855422-203-R-J1-PDC patient-derived bladder carcinoma cell line growth inhibition [AhR]
Conditions: for IC50: curve of first compound; for viability, T/C: stronger effect = lower value; active = viability on the fitted dose curve at most 10% of control; inactive = the rest
Summary of the method: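 Complex tumor spheroids co-cultured with HUVEC and human MSC stroma; AhR antagonists tested in combination with standard-of-care and investigational agents. Top concentration at or near clinical Cmax (else 10 microM), half-log dilutions; growth expressed as percent test/control.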

[1] = second compound 0.1 µM, first compound 0.0316 µM
[2] = second compound 0.1 µM, first compound 0.1 µM
[3] = second compound 0.1 µM, first compound 0.316 µM
[4] = second compound 0.1 µM, first compound 1 µM
[5] = second compound 0.1 µM, first compound 3.16 µM
[6] = second compound 0.1 µM, first compound 10 µM
[7] = second compound 0.316 µM, first compound 0.0316 µM
[8] = second compound 0.316 µM, first compound 0.1 µM
[9] = second compound 0.316 µM, first compound 0.316 µM
[10] = second compound 0.316 µM, first compound 1 µM
[11] = second compound 0.316 µM, first compound 3.16 µM
[12] = second compound 0.316 µM, first compound 10 µM
[13] = second compound 1 µM, first compound 0.0316 µM
[14] = second compound 1 µM, first compound 0.1 µM
[15] = second compound 1 µM, first compound 0.316 µM
[16] = second compound 1 µM, first compound 1 µM
[17] = second compound 1 µM, first compound 3.16 µM
[18] = second compound 1 µM, first compound 10 µM
[19] = second compound 3.16 µM, first compound 0.0316 µM
[20] = second compound 3.16 µM, first compound 0.1 µM
[21] = second compound 3.16 µM, first compound 0.316 µM
[22] = second compound 3.16 µM, first compound 1 µM
[23] = second compound 3.16 µM, first compound 3.16 µM
[24] = second compound 3.16 µM, first compound 10 µM
[25] = second compound 10 µM, first compound 0.0316 µM
[26] = second compound 10 µM, first compound 0.1 µM
[27] = second compound 10 µM, first compound 0.316 µM
[28] = second compound 10 µM, first compound 1 µM
[29] = second compound 10 µM, first compound 3.16 µM
[30] = second compound 10 µM, first compound 10 µM
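Also: spheroids exposed to agents for seven days before readout.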
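For viability, T/C in this document: percent of DMSO vehicle control luminescence viability.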

CC(C)CC(NC(=O)C(Cc1ccccc1)NC(=O)c1cnccn1)B(O)O (stereo not given) + Cc1cncc(-c2nc(NCCc3c[nH]c4ccccc34)c3ncn(C(C)C)c3n2)c1
0.00202 µM: IC50 (second compound 0.316 µM)
0.00168 µM: IC50 (second compound 1 µM)
< 0.000949 µM: IC50 (second compound 10 µM)
inactive: viability, T/C (second compound 0.1 µM, first compound 0.000949 µM) 93% | viability, T/C (second compound 0.1 µM, first compound 0.003 µM) 32.3% | viability, T/C (second compound 0.316 µM, first compound 0.000949 µM) 103% | viability, T/C (second compound 0.316 µM, first compound 0.003 µM) 22.5% | viability, T/C (second compound 1 µM, first compound 0.000949 µM) 90.6% | viability, T/C (second compound 3.16 µM, first compound 0.000949 µM) 66.5%
active: viability, T/C (second compound 0.1 µM, first compound 0.00949 µM) 1.54% | viability, T/C (second compound 0.1 µM, first compound 0.03 µM) 0.03% | viability, T/C (second compound 0.1 µM, first compound 0.0949 µM) 0.02% | viability, T/C (second compound 0.1 µM, first compound 0.3 µM) 0.1% | viability, T/C (second compound 0.316 µM, first compound 0.00949 µM) 2.79% | viability, T/C (second compound 0.316 µM, first compound 0.03 µM) 0.01% | viability, T/C (second compound 0.316 µM, first compound 0.0949 µM) 0.01% | viability, T/C (second compound 0.316 µM, first compound 0.3 µM) 0.09% | viability, T/C (second compound 1 µM, first compound 0.003 µM) 9.23% | viability, T/C (second compound 1 µM, first compound 0.00949 µM) 1.41% | viability, T/C (second compound 1 µM, first compound 0.03 µM) 0.02% | viability, T/C (second compound 1 µM, first compound 0.0949 µM) 0.03% | viability, T/C (second compound 1 µM, first compound 0.3 µM) 1.34% | viability, T/C (second compound 3.16 µM, first compound 0.003 µM) 4.56% | viability, T/C (second compound 3.16 µM, first compound 0.00949 µM) 0.97% | viability, T/C (second compound 3.16 µM, first compound 0.03 µM) 2.11% | viability, T/C (second compound 3.16 µM, first compound 0.0949 µM) 0.02% | viability, T/C (second compound 3.16 µM, first compound 0.3 µM) 0.68% | viability, T/C (second compound 10 µM, first compound 0.000949 µM) 4.11% | viability, T/C (second compound 10 µM, first compound 0.003 µM) 0.69% | viability, T/C (second compound 10 µM, first compound 0.00949 µM) 0.08% | viability, T/C (second compound 10 µM, first compound 0.03 µM) 1.49% | viability, T/C (second compound 10 µM, first compound 0.0949 µM) 0.1% | viability, T/C (second compound 10 µM, first compound 0.3 µM) 0.73%
0.00214 µM: IC50 (second compound 0.1 µM)
0.00129 µM: IC50 (second compound 3.16 µM)

Nc1ccccc1NC(=O)c1ccc(CNC(=O)OCc2cccnc2)cc1 + Cc1cncc(-c2nc(NCCc3c[nH]c4ccccc34)c3ncn(C(C)C)c3n2)c1
2.01 µM: IC50 (second compound 1 µM)
active: viability, T/C [6] 5.46% | viability, T/C [12] 5.76% | viability, T/C [18] 4.53% | viability, T/C [25] 7.49% | viability, T/C [26] 5.93% | viability, T/C [27] 0.88% | viability, T/C [28] 0.3% | viability, T/C [29] 0.17% | viability, T/C [30] 0.17%
2.31 µM: IC50 (second compound 0.316 µM)
0.475 µM: IC50 (second compound 3.16 µM)
< 0.0316 µM: IC50 (second compound 10 µM)
2.66 µM: IC50 (second compound 0.1 µM)
inactive: viability, T/C [1] 88.7% | viability, T/C [2] 81.7% | viability, T/C [3] 76.4% | viability, T/C [4] 74.3% | viability, T/C [5] 45.2% | viability, T/C [7] 86.9% | viability, T/C [8] 83.7% | viability, T/C [9] 69.5% | viability, T/C [10] 76.4% | viability, T/C [11] 40.7% | viability, T/C [13] 88.7% | viability, T/C [14] 87.9% | viability, T/C [15] 78.2% | viability, T/C [16] 73.9% | viability, T/C [17] 35.4% | viability, T/C [19] 82.2% | viability, T/C [20] 73.8% | viability, T/C [21] 63.9% | viability, T/C [22] 26.4% | viability, T/C [23] 22.1% | viability, T/C [24] 5.42%

O=C(C=Cc1cccc(S(=O)(=O)Nc2ccccc2)c1)NO + Cc1cncc(-c2nc(NCCc3c[nH]c4ccccc34)c3ncn(C(C)C)c3n2)c1
1.14 µM: IC50 (second compound 1 µM)
< 0.0316 µM: IC50 (second compound 10 µM)
1.48 µM: IC50 (second compound 0.1 µM)
inactive: viability, T/C [1] 81.7% | viability, T/C [2] 86.4% | viability, T/C [3] 85.2% | viability, T/C [4] 62.5% | viability, T/C [5] 23.9% | viability, T/C [7] 84.8% | viability, T/C [8] 82.9% | viability, T/C [9] 81.5% | viability, T/C [10] 59.9% | viability, T/C [11] 23.5% | viability, T/C [13] 82.6% | viability, T/C [14] 84.4% | viability, T/C [15] 72% | viability, T/C [16] 53.3% | viability, T/C [17] 23.9% | viability, T/C [19] 73.5% | viability, T/C [20] 82.4% | viability, T/C [21] 66% | viability, T/C [22] 23.5% | viability, T/C [25] 29.9% | viability, T/C [26] 36.2% | viability, T/C [27] 8.93%
active: viability, T/C [6] 0.91% | viability, T/C [12] 0.69% | viability, T/C [18] 0.75% | viability, T/C [23] 12.2% | viability, T/C [24] 0.58% | viability, T/C [28] 3.43% | viability, T/C [29] 1.25% | viability, T/C [30] 0.31%
0.494 µM: IC50 (second compound 3.16 µM)
1.39 µM: IC50 (second compound 0.316 µM)

O=C(c1cc(Cc2n[nH]c(=O)c3ccccc23)ccc1F)N1CCN(C(=O)C2CC2)CC1 + Cc1cncc(-c2nc(NCCc3c[nH]c4ccccc34)c3ncn(C(C)C)c3n2)c1
active: viability, T/C [27] 7.7% | viability, T/C [28] 3.22% | viability, T/C [29] 6.34% | viability, T/C [30] 5.85%
< 0.0316 µM: IC50 (second compound 10 µM)
inactive: viability, T/C [1] 106% | viability, T/C [2] 102% | viability, T/C [3] 99.6% | viability, T/C [4] 103% | viability, T/C [5] 108% | viability, T/C [6] 90.9% | viability, T/C [7] 102% | viability, T/C [8] 109% | viability, T/C [9] 101% | viability, T/C [10] 93.7% | viability, T/C [11] 101% | viability, T/C [12] 86.7% | viability, T/C [13] 98.2% | viability, T/C [14] 93% | viability, T/C [15] 103% | viability, T/C [16] 87.9% | viability, T/C [17] 94.7% | viability, T/C [18] 89.5% | viability, T/C [19] 78.6% | viability, T/C [20] 83.6% | viability, T/C [21] 75.9% | viability, T/C [22] 71.2% | viability, T/C [23] 89.8% | viability, T/C [24] 78.6% | viability, T/C [25] 16.8% | viability, T/C [26] 12.5%
> 10 µM: IC50 (second compound 0.1 µM) | IC50 (second compound 0.316 µM) | IC50 (second compound 1 µM) | IC50 (second compound 3.16 µM)
